Reference: ChEMBL document CHEMBL4382200, “Discovery of Novel 7-Aryl 7-Deazapurine 3'-Deoxy-ribofuranosyl Nucleosides with Potent Activity against Trypanosoma cruzi” (J Med Chem, 2018)
The source made the active and inactive calls. The calls are words filed in the database; no cut-off is given here.

Legend:
Trypanosoma cruzi [1] = test: Antiparasitic activity against Trypanosoma cruzi Tulahuen intracellular amastigotes by beta-galactosidase reporter gene assay; assay type: functional, organism-based
[2] = Therapeutic index, ratio EC50 for human MRC5 SV2 cells to EC50 for Trypanosoma cruzi Tulahuen CL2 intracellular amastigotes; assay type: toxicity, cell-based; conditions: read-out: Ratio EC50
CYP450 [3] = test: Drug metabolism in dog liver microsome S9 fraction assessed as CYP450-mediated metabolism by measuring compound remaining at 5 uM pretreated with NADPH and measured after 15 mins by UPLC-MS/MS analysis; assay type: ADME, microsomes, Canis lupus familiaris; conditions: liver microsome S9 fraction, read-out: Stability
[4] = target: T1, UDP-glucuronosyltransferases (UGTs) (family) (Homo sapiens, UniProt O60656+O75310+O75795+P06133+P0DTE4+P0DTE5+P16662+P19224+P22309+P22310+P35503+P35504+P36537+P54855+Q6UWM9+Q9BY64+Q9HAW7+Q9HAW8+Q9HAW9); test: Drug metabolism in human liver microsome S9 fraction assessed as UGT-mediated metabolism by measuring compound remaining at 5 uM pretreated with UDPGA and measured after 30 mins by UPLC-MS/MS analysis; assay type: ADME, microsomes; conditions: liver microsome S9 fraction, read-out: Stability
UGT [5] = test: Drug metabolism in dog liver microsome S9 fraction assessed as UGT-mediated metabolism by measuring compound remaining at 5 uM pretreated with UDPGA and measured after 30 mins by UPLC-MS/MS analysis; assay type: ADME, microsomes, Canis lupus familiaris; conditions: liver microsome S9 fraction, read-out: Stability
UGT [6] = test: Drug metabolism in mouse liver microsome S9 fraction assessed as UGT-mediated metabolism by measuring compound remaining at 5 uM pretreated with UDPGA and measured after 60 mins by UPLC-MS/MS analysis; assay type: ADME, microsomes; conditions: liver microsome S9 fraction, read-out: Stability
CYP450 [7] = test: Drug metabolism in mouse liver microsome S9 fraction assessed as CYP450-mediated metabolism by measuring compound remaining at 5 uM pretreated with NADPH and measured after 15 mins by UPLC-MS/MS analysis; assay type: ADME, microsomes; conditions: liver microsome S9 fraction, read-out: Stability
Trypanosoma cruzi [8] = test: Antiparasitic activity against Trypanosoma cruzi Tulahuen CL2 intracellular amastigotes expressing beta-galactosidase infected in human MRC5 SV2 cells after 7 days by chlorophenol red beta-D-galactopyranoside-based spectrophotometric analysis; assay type: functional, organism-based; conditions: Tulahuen CL2, MRC-5 SV2, 168 h, read-out: EC50
CYP450 [9] = test: Drug metabolism in mouse liver microsome S9 fraction assessed as CYP450-mediated metabolism by measuring compound remaining at 5 uM pretreated with NADPH and measured after 30 mins by UPLC-MS/MS analysis; assay type: ADME, microsomes; conditions: liver microsome S9 fraction, read-out: Stability
UGT [10] = test: Drug metabolism in mouse liver microsome S9 fraction assessed as UGT-mediated metabolism by measuring compound remaining at 5 uM pretreated with UDPGA and measured after 30 mins by UPLC-MS/MS analysis; assay type: ADME, microsomes; conditions: liver microsome S9 fraction, read-out: Stability
CYP450 [11] = test: Drug metabolism in dog liver microsome S9 fraction assessed as CYP450-mediated metabolism by measuring compound remaining at 5 uM pretreated with NADPH and measured after 60 mins by UPLC-MS/MS analysis; assay type: ADME, microsomes, Canis lupus familiaris; conditions: liver microsome S9 fraction, read-out: Stability
UGT [12] = test: Drug metabolism in dog liver microsome S9 fraction assessed as UGT-mediated metabolism by measuring compound remaining at 5 uM pretreated with UDPGA and measured after 60 mins by UPLC-MS/MS analysis; assay type: ADME, microsomes, Canis lupus familiaris; conditions: liver microsome S9 fraction, read-out: Stability
UGT [13] = test: Drug metabolism in dog liver microsome S9 fraction assessed as UGT-mediated metabolism by measuring compound remaining at 5 uM pretreated with UDPGA and measured after 15 mins by UPLC-MS/MS analysis; assay type: ADME, microsomes, Canis lupus familiaris; conditions: liver microsome S9 fraction, read-out: Stability
UGT [14] = test: Drug metabolism in rat liver microsome S9 fraction assessed as UGT-mediated metabolism by measuring compound remaining at 5 uM pretreated with UDPGA and measured after 30 mins by UPLC-MS/MS analysis; assay type: ADME, microsomes; conditions: liver microsome S9 fraction, read-out: Stability
Trypanosoma cruzi [15] = test: Antiparasitic activity against Trypanosoma cruzi Y strain bloodstream trypomastigotes infected in Swiss Webster mouse assessed as decrease in parasitemia at 25 mg/kg, po bid via gavage administered for 5 consecutive days measured at day 8 post infection by direct microscopic counting relative to control; assay type: functional; set-up: scale not given: the % may be the effect or the level left
[16] = Cytotoxicity against Swiss mouse embryonic cardiomyocytes assessed as reduction in cell contractibillity at 2 uM after 24 hrs by light microscopy; conditions: cardiac muscle cell
CYP450 [17] = test: Drug metabolism in dog liver microsome S9 fraction assessed as CYP450-mediated metabolism by measuring compound remaining at 5 uM pretreated with NADPH and measured after 30 mins by UPLC-MS/MS analysis; assay type: ADME, microsomes, Canis lupus familiaris; conditions: liver microsome S9 fraction, read-out: Stability
CYP450 [18] = test: Drug metabolism in mouse liver microsome S9 fraction assessed as CYP450-mediated metabolism by measuring compound remaining at 5 uM pretreated with NADPH and measured after 60 mins by UPLC-MS/MS analysis; assay type: ADME, microsomes; conditions: liver microsome S9 fraction, read-out: Stability
Cytochrome P450 (family) [19] = target: T2, Cytochrome P450 (family) (Homo sapiens, UniProt P04798+P05177+P05181+P08684+P10632+P10635+P11509+P11712+P13584+P20813+P20815+P20853+P24462+P24903+P33260+P33261+P51589+P78329+P98187+Q02928+Q08477+Q16678+Q16696+Q5TCH4+Q6VVX0+Q7Z449+Q8TAV3+Q96SQ9+Q9HB55); test: Drug metabolism in human liver microsome S9 fraction assessed as CYP450-mediated metabolism by measuring compound remaining at 5 uM pretreated with NADPH and measured after 30 mins by UPLC-MS/MS analysis; assay type: ADME, microsomes; conditions: liver microsome S9 fraction, read-out: Stability
[20] = target: T1, UDP-glucuronosyltransferases (UGTs) (family); test: Drug metabolism in human liver microsome S9 fraction assessed as UGT-mediated metabolism by measuring compound remaining at 5 uM pretreated with UDPGA and measured after 15 mins by UPLC-MS/MS analysis; assay type: ADME, microsomes; conditions: liver microsome S9 fraction, read-out: Stability
Trypanosoma cruzi [21] = test: Trypanocidal activity against Trypanosoma cruzi Y strain intracellular amastigotes infected in mouse cardiac cells assessed as parasite death after 168 hrs by Giemsa-staining based assay; assay type: functional, organism-based
UGT [22] = test: Drug metabolism in rat liver microsome S9 fraction assessed as UGT-mediated metabolism by measuring compound remaining at 5 uM pretreated with UDPGA and measured after 15 mins by UPLC-MS/MS analysis; assay type: ADME, microsomes; conditions: liver microsome S9 fraction, read-out: Stability
Trypanosoma cruzi [23] = test: Antiparasitic activity against Trypanosoma cruzi Y strain bloodstream trypomastigotes infected in Swiss Webster mouse at 25 mg/kg, po bid via gavage administered for 5 consecutive days starting from day 5 post infection followed by cyclophosphamide-induced immunosuppression on day 40 post infection for 4 consecutive days; assay type: functional, organism-based
Trypanosoma cruzi [24] = test: Trypanocidal activity against Trypanosoma cruzi Y strain bloodstream trypomastigotes isolated from infected Swiss mouse […] assessed as parasite death after 24 hrs by neubauer chamber based light microscopy; assay type: functional, organism-based
[25] = Toxicity in Swiss Webster mouse infected with Trypanosoma cruzi Y strain bloodstream trypomastigotes assessed as weight loss at 25 mg/kg, po bid via gavage administered for 5 consecutive days measured at day 40 post infection; assay type: organism-based; conditions: in vivo
Cytochrome P450 (family) [26] = target: T2, Cytochrome P450 (family); test: Drug metabolism in human liver microsome S9 fraction assessed as CYP450-mediated metabolism by measuring compound remaining at 5 uM pretreated with NADPH and measured after 15 mins by UPLC-MS/MS analysis; assay type: ADME, microsomes; conditions: liver microsome S9 fraction, read-out: Stability
[27] = Drug metabolism in mouse liver microsome S9 fraction assessed as UGT-mediated metabolism by measuring compound remaining at 5 uM pretreated with UDPGA and measured after 15 mins by UPLC-MS/MS analysis; assay type: ADME, microsomes; conditions: microsomes, 0.25 h, 5 µM
CYP450 [28] = test: Drug metabolism in rat liver microsome S9 fraction assessed as CYP450-mediated metabolism by measuring compound remaining at 5 uM pretreated with NADPH and measured after 60 mins by UPLC-MS/MS analysis; assay type: ADME, microsomes; conditions: liver microsome S9 fraction, read-out: Stability
[29] = Cytotoxicity against Swiss mouse embryonic cardiomyocytes assessed as reduction in cell viability after 24 hrs by prestoblue-staining based colorimetry; conditions: Cardiac muscle cell
[30] = Drug metabolism in rat liver microsome S9 fraction assessed as CYP450-mediated metabolism by measuring compound remaining at 5 uM pretreated with NADPH and measured after 15 mins by UPLC-MS/MS analysis; assay type: ADME, microsomes; conditions: microsomes, 0.25 h, 5 µM
UGT [31] = test: Drug metabolism in rat liver microsome S9 fraction assessed as UGT-mediated metabolism by measuring compound remaining at 5 uM pretreated with UDPGA and measured after 60 mins by UPLC-MS/MS analysis; assay type: ADME, microsomes; conditions: liver microsome S9 fraction, read-out: Stability
CYP450 [32] = test: Drug metabolism in rat liver microsome S9 fraction assessed as CYP450-mediated metabolism by measuring compound remaining at 5 uM pretreated with NADPH and measured after 30 mins by UPLC-MS/MS analysis; assay type: ADME, microsomes; conditions: liver microsome S9 fraction, read-out: Stability
Trypanosoma cruzi [33] = test: Antiparasitic activity against Trypanosoma cruzi Y strain bloodstream trypomastigotes infected in Swiss Webster mouse assessed as protection against parasite-induced mortality by measuring survivial at 25 mg/kg, po bid via gavage administered for 5 consecutive days starting from day 5 post infection measured at day 40 post infection relative to control; assay type: functional
Cytochrome P450 (family) [34] = target: T2, Cytochrome P450 (family); test: Drug metabolism in human liver microsome S9 fraction assessed as CYP450-mediated metabolism by measuring compound remaining at 5 uM pretreated with NADPH and measured after 60 mins by UPLC-MS/MS analysis; assay type: ADME, microsomes; conditions: liver microsome S9 fraction, read-out: Stability
[35] = Cytotoxicity against human MRC5 SV2 cells assessed as reduction in cell viability after 3 days resazurin-based fluorimetric assay; conditions: MRC-5 SV2, 72 h
[36] = target: T1, UDP-glucuronosyltransferases (UGTs) (family); test: Drug metabolism in human liver microsome S9 fraction assessed as UGT-mediated metabolism by measuring compound remaining at 5 uM pretreated with UDPGA and measured after 60 mins by UPLC-MS/MS analysis; assay type: ADME, microsomes; conditions: liver microsome S9 fraction, read-out: Stability

Structure (SMILES): CN(C)c1ncnc2c1ncn2[C@@H]1O[C@H](CO)[C@@H](N)[C@H]1O [PUROMYCIN AMINONUCLEOSIDE]
- EC50 (Trypanosoma cruzi [1]): 1 µM

Structure (SMILES): Nc1ncnc2c1c(-c1ccc(Cl)cc1)cn2[C@@H]1O[C@H](CO)[C@@H](O)[C@H]1O
- selectivity ratio [2]: 57
- remaining at 0.25 h, 5 µM (CYP450 [3]): 93%
- remaining at 0.5 h, 5 µM [4]: 96%
- remaining at 0.5 h, 5 µM (UGT [5]): 70%
- remaining at 1 h, 5 µM (UGT [6]): 106%
- remaining at 0.25 h, 5 µM (CYP450 [7]): 110%
- EC50 (Trypanosoma cruzi [8]): 0.47 µM
- remaining at 0.5 h, 5 µM (CYP450 [9]): 95%
- remaining at 0.5 h, 5 µM (UGT [10]): 110%
- remaining at 1 h, 5 µM (CYP450 [11]): 98%
- remaining at 1 h, 5 µM (UGT [12]): 55%
- remaining at 0.25 h, 5 µM (UGT [13]): 84%
- remaining at 0.5 h, 5 µM (UGT [14]): 93%
- Activity (Trypanosoma cruzi [15]): >99.8%
- Activity [16]: Toxic
- remaining at 0.5 h, 5 µM (CYP450 [17]): 96%
- remaining at 1 h, 5 µM (CYP450 [18]): 102%
- remaining at 0.5 h, 5 µM (Cytochrome P450 (family) [19]): 93%
- remaining at 0.25 h, 5 µM [20]: 99%
- EC50 (Trypanosoma cruzi [21]): 0.029 µM
- remaining at 0.25 h, 5 µM (UGT [22]): 100%
- Activity (Trypanosoma cruzi [23]): inactive
- EC50 (Trypanosoma cruzi [24]): > 20 µM
- Activity [25]: Non-Toxic
- remaining at 0.25 h, 5 µM (Cytochrome P450 (family) [26]): 113%
- Stability [27]: 124%
- remaining at 1 h, 5 µM (CYP450 [28]): 106%
- EC50 [29]: 274 µM
- Stability [30]: 122%
- remaining at 1 h, 5 µM (UGT [31]): 93%
- remaining at 0.5 h, 5 µM (CYP450 [32]): 104%
- Activity (Trypanosoma cruzi [33]): 100%
- remaining at 1 h, 5 µM (Cytochrome P450 (family) [34]): 86%
- EC50 [35]: 27 µM
- remaining at 1 h, 5 µM [36]: 91%
